Results published in patent publication US20240182465A1 (GENFLEET THERAPEUTICS (SHANGHAI) INC., priority 2021, published 2024).

Tests used:
HPK1 [1] = biological target: T1, HPK1 (Homo sapiens, UniProt Q92918); experiment: HPK1 kinase activity assay (ADP-Glo); settings: HPK1 Kinase activity IC50 (nM), 1 nM HPK1, 10 μM ATP, 0.1 μg/μL MBP
T1 sequence (Q92918 1-346 limits assumed): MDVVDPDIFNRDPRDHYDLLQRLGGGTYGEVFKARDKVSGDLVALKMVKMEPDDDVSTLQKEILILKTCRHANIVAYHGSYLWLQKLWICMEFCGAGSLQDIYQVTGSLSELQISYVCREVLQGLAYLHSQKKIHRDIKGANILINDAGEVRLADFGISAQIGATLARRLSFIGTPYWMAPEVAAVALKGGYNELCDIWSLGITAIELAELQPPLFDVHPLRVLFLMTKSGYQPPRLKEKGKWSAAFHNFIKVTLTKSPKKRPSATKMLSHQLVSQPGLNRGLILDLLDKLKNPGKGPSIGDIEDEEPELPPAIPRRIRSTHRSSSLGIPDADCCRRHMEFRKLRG

HPK1 [2] = biological target: HPK1 (Homo sapiens, UniProt Q92918); experiment: SLP76 phosphorylation assay (intracellular HPK1 inhibitory activity, p-SLP76 Ser376 sandwich ELISA); settings: p-SLP76 IC50(nM), Jurkat, Clone E6-1 cells; 1 h compound pre-incubation, anti-CD3 beads stimulation 20 min; SLP76 phosphorylation at S376
Target sequence in this assay (Q92918 whole entry): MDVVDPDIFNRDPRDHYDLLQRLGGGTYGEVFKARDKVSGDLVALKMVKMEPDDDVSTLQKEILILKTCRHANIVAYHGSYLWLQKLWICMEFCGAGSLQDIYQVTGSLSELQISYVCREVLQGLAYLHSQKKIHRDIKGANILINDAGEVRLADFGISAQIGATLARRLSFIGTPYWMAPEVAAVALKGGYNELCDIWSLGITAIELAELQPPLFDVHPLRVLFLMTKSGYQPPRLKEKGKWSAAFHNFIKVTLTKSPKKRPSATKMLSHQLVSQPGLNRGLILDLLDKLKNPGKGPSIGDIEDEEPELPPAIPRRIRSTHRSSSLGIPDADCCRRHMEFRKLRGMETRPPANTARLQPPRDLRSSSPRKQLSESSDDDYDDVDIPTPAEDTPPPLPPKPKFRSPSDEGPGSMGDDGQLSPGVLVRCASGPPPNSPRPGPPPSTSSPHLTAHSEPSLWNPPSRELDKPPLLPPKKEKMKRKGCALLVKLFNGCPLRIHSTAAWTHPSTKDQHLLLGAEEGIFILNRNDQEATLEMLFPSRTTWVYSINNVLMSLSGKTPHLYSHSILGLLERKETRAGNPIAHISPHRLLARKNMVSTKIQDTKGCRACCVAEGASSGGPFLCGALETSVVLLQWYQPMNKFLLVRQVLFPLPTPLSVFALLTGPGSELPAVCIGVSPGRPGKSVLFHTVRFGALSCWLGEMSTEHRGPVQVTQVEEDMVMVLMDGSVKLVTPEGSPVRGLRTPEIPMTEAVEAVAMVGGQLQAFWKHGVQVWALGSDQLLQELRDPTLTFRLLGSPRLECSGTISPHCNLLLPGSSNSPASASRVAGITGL

IC50 (HPK1 [1])	IC50 (HPK1 [2])	SMILES
0.64 nM	170 nM	Cc1c[nH]c2ncc(-c3cc4c(c([C@@H]5CCCN5)c3)CN(C(=O)c3cnn(CC(F)F)c3)CC4)cc12 [Compound Z306, (S)-[1-(2,2-difluoroethyl)pyrazol-4-yl]-[6-(3-methyl-1H-pyrrolo[2,3-b]pyridin-5-yl)-8-[pyrrolidin-2-yl]-3,4-dihydro-1H-isoquinolin-2-yl]methanone]
0.7 nM	174 nM	Cc1cc(C(=O)N2CCc3cc(-c4cnc5[nH]cc(C)c5c4)cc([C@@H]4CCCN4)c3C2)ncn1 [Compound Z331, (S)-(6-(3-methyl-1H-pyrrolo[2,3-b]pyridin-5-yl)-8-(pyrrolidin-2-yl)-3,4-dihydroisoquinolin-2(1H)-yl) (6-methylpyrimidin-4-yl)methanone]
0.23 nM	89.8 nM	C[C@](O)(C(=O)N1CCc2cc(-c3cnc4[nH]cc(Cl)c4c3)cc([C@@H]3CCCN3)c2C1)C(F)(F)F [Compound Z405, (S)-1-(6-(3-chloro-1H-pyrrolo[2,3-b]pyridin-5-yl)-8-((S)-pyrrolidin-2-yl)-3,4-dihydroisoquinolin-2(1H)-yl)-3,3,3-trifluoro-2-hydroxy-2-methylpropan-1-one]
0.49 nM	131 nM	Cc1c[nH]c2ncc(-c3cc4c(c([C@@H]5CCCN5)c3)CN(S(=O)(=O)C3CC3)CC4)cc12 [Compound Z251, (S)-2-(cyclopropylsulfonyl)-6-(3-methyl-1H-pyrrolo[2,3-b]pyridin-5-yl)-8-(pyrrolidin-2-yl)-1,2,3,4-tetrahydroisoquinoline]
7.54 nM	664 nM	Cc1c[nH]c2ncc(-c3cc4c(c([C@@H]5CCCN5)c3)CN(CC(F)(F)F)CC4)cc12 [Compound Z131, (S)-6-(3-methyl-1H-pyrrolo[2,3-b]pyridin-5-yl)-8-(pyrrolidin-2-yl)-2-(2,2,2-trifluoroethyl)-1,2,3,4-tetrahydroisoquinoline]
1.02 nM	269 nM	Cc1c[nH]c2ncc(-c3cc4c(c([C@@H]5CCCN5)c3)CN(C(=O)c3cc(C)n(C)n3)CC4)cc12 [Compound Z354]
0.51 nM	444 nM	COc1cc(C(=O)N2CCc3cc(-c4cnc5[nH]cc(C)c5c4)cc([C@@H]4CCCN4)c3C2)ccn1 [Compound Z215, (S)-(6-(3-methyl-1H-pyrrolo[2,3-b]pyridin-5-yl)-8-(pyrrolidin-2-yl)-3,4-dihydroisoquinolin-2(1H)-yl) (2-methoxypyridin-4-yl)methanone]
3.37 nM	604 nM	Cc1c[nH]c2ncc(-c3cc([C@H]4CCCN4)c4cnccc4c3)cc12 (single isomer, unassigned) [Compound Z3-2]
0.81 nM	132 nM	CCN1Cc2c(cc(-c3cnc4[nH]cc(C)c4c3)cc2[C@@H]2CCCN2)CC1=O [Compound Z138, (S)-2-ethyl-6-(3-methyl-1H-pyrrolo[2,3-b]pyridin-5-yl)-8-(pyrrolidin-2-yl)-1,4-dihydroisoquinolin-3(2H)-one]
0.33 nM	150 nM	Cc1c[nH]c2ncc(-c3cc4c(c([C@@H]5CCCN5)c3)CN(C(=O)c3ccnc(C(C)(C)O)c3)CC4)cc12 [Compound Z327, (S)-(2-(2-hydroxypropan-2-yl)pyridin-4-yl)(6-(3-methyl-1H-pyrrolo[2,3-b]pyridin-5-yl)-8-(pyrrolidin-2-yl)-3,4-dihydroisoquinolin-2(1H)-yl)methanone]
0.42 nM	174 nM	Cc1c[nH]c2ncc(-c3cc4c(c([C@@H]5CCCN5)c3)CN(C(=O)[C@@H]3CCOC3)CC4)cc12 [Compound Z219-1, (S)-(6-(3-methyl-1H-pyrrolo[2,3-b]pyridin-5-yl)-8-(pyrrolidin-2-yl)-3,4-dihydroisoquinolin-2(1H)-yl) ((R)-tetrahydrofuran-3-yl)methanone]
0.62 nM	227 nM	Cc1c[nH]c2ncc(-c3cc4c(c([C@@H]5CCCN5)c3)CN(C(=O)c3cccnc3)CC4)cc12 [Compound Z210, (S)-1-(6-(3-methyl-1H-pyrrolo[2,3-b]pyridin-5-yl)-8-(pyrrolidin-2-yl)-3,4-dihydroisoquinolin-2(1H)-yl)(pyridin-3-yl)methanone]
0.97 nM	272 nM	CCN1Cc2cc(-c3cnc4[nH]cc(C)c4c3)cc([C@@H]3CCCN3)c2CC1=O [Compound Z292, (S)-2-ethyl-7-(3-methyl-1H-pyrrolo[2,3-b]pyridin-5-yl)-5-(pyrrolidin-2-yl)-1,4-dihydroisoquinolin-3(2H)-one]
0.88 nM	200 nM	Cc1c[nH]c2ncc(-c3cc4c(c([C@@H]5COCCN5)c3)CN(C(=O)[C@@](C)(O)C(F)(F)F)CC4)cc12 [Compound Z317, (R)-3,3,3-trifluoro-2-hydroxy-2-methyl-1-[6-(3-methyl-1H-pyrrolo[2,3-b]pyridin-5-yl)-8-[(R)-morpholin-3-yl]-3,4-dihydroisoquinolin-2(1H)-yl]propan-1-one]
1.09 nM	492 nM	Cc1nn(C2CC2)cc1C(=O)N1CCc2cc(-c3cnc4[nH]cc(C)c4c3)cc([C@@H]3CCCN3)c2C1 [Compound Z341]

More lines, now with the values behind:

SMILES	IC50 (HPK1 [1])	IC50 (HPK1 [2])
Cc1c[nH]c2ncc(-c3cc4c(c([C@@H]5CCCN5)c3)CCN(CC3CCOCC3)C4)cc12 [Compound Z402, 7-(3-methyl-1H-pyrrolo[2,3-h]pyridin-5-yl)-2-(3,4,5,6-tetrahydro-2H-pyran-4-ylmethyl)-5-[(2S)-tetrahydro-1H-pyrrol-2-yl]-1,2,3,4-tetrahydroisoquinoline]	1.2 nM	454 nM
Cc1c[nH]c2ncc(-c3cc4c(c([C@@H]5COCCN5)c3)CN(S(C)(=O)=O)CC4)cc12 [Compound Z316, 2-(methyldioxo-λ6-sulfanyl)-6-(3-methyl-1H-pyrrolo[2,3-b]pyridin-5-yl)-8-[(3R)-1,4-oxazecyclohex-3-yl]-1,2,3,4-tetrahydroisoquinoline]	0.74 nM	314 nM
Cc1c[nH]c2ncc(-c3cc4c(c([C@@H]5CCCN5)c3)CN(C(=O)N3CCOC[C@@H]3C)CC4)cc12 [Compound Z358-1]	0.23 nM	67.4 nM
CCNC(=O)N1CCc2c(cc(-c3cnc4[nH]cc(C)c4c3)cc2[C@@H]2CCCN2)C1 [Compound Z295, (S)—N-ethyl-7-(3-methyl-1H-pyrrolo[2,3-h]pyridin-5-yl)-5-(pyrrolidin-2-yl)-3,4-dihydroisoquinoline-2(1H)-carboxamide]	1.22 nM	214 nM
COC(=O)N1CCc2c(cc(-c3cnc4[nH]cc(C)c4c3)cc2[C@@H]2CCCN2)C1 [Compound Z305, methyl (S)-7-(3-methyl-1H-pyrrolo[2,3-b]pyridin-5-yl)-5-(pyrrolidin-2-yl)-3,4-dihydroisoquinoline-2(1H)-carboxylate]	0.84 nM	297 nM
FC(F)(F)c1c[nH]c2ncc(-c3cc(C4CCCN4)c4cnccc4c3)cc12 (stereo not shown) [Compound Z96, 6-(3-(trifluoromethyl)-1H-pyrrolo[2,3-b]pyridin-5-yl)-8-(pyrrolidin-2-yl)isoquinoline]	4.13 nM	1000 nM
CC(C)c1c[nH]c2ncc(-c3cc(C4CCCN4)c4cnccc4c3)cc12 (stereo not shown) [Compound Z95, 6-(3-isopropyl-1H-pyrrolo[2,3-b]pyridin-5-yl)-8-(pyrrolidin-2-yl)isoquinoline]	3.11 nM	1080 nM
Cc1c[nH]c2ncc(-c3cc4c(c([C@@H]5CCCN5)c3)CCN(C(=O)C(C)(C)C)C4)cc12 [Compound Z300, (S)-2,2-dimethyl-1-(7-(3-methyl-1H-pyrrolo[2,3-b]pyridin-5-yl)-5-(pyrrolidin-2-yl)-3,4-dihydroisoquinolin-2(1H)-yl)propan-1-one]	0.64 nM	274 nM
Cc1c[nH]c2ncc(-c3cc4c(c(C5COC(N)=N5)c3)COCC4)cc12 (stereo not shown) [Compound Z243, 4-[6-(3-methyl-1H-pyrrolo[2,3-b]pyridin-5-yl)isochroman-8-yl]-4,5-dihydrooxazol-2-amine]	16.5 nM	2510 nM
O=C1OCc2ccc(-c3c[nH]c4ncc(-c5cc6c(c([C@@H]7CCCN7)c5)COCC6)cc34)cc21 [Compound Z365, (S)-6-(5-(8-(pyrrolidin-2-yl)isochroman-6-yl)-1H-pyrrolo[2,3-b]pyridin-3-yl)isobenzofuran-1(3H)-one]	0.97 nM	315 nM
COCC(=O)N1CCc2cc(-c3cnc4[nH]cc(C(C)C)c4c3)cc([C@@H]3COCCN3)c2C1 [Compound Z424-1]	0.31 nM	129 nM
c1cncc(-c2c[nH]c3ncc(-c4cc5c(c([C@@H]6CCCN6)c4)COCC5)cc23)c1 [Compound Z199, (S)-3-(pyridin-3-yl)-5-(8-(pyrrolidin-2-yl)isochroman-6-yl)-1H-pyrrolo[2,3-b]pyridine]	0.32 nM	117 nM
Cc1c[nH]c2ncc(-c3cc4c(c([C@@H]5CCCN5)c3)CN(C(=O)c3cn(C(C)C)nc3C(F)(F)F)CC4)cc12 [Compound Z348, (S)-[1-isopropyl-3-(trifluoromethyl)-1H-pyrazol-4-yl]-[6-(3-methyl-1H-pyrrolo[2,3-b]pyridin-5-yl)-8-[pyrrolidin-2-yl]-3,4-dihydroisoquinolin-2(1H)-yl]methanone]	0.75 nM	183 nM
N#CCc1c[nH]c2ncc(-c3cc4c(c(C5CCCN5)c3)COCC4)cc12 (stereo not shown) [Compound Z101, 2-(5-(8-(pyrrolidin-2-yl)isochroman-6-yl)-1H-pyrrolo[2,3-b]pyridin-3-yl)acetonitrile]	0.49 nM	163 nM
